Data: ChEMBL document CHEMBL2073789, “Reversal of P-glycoprotein mediated multidrug resistance by a newly synthesized 1,4-benzothiazipine derivative, JTV-519” (Cancer Lett, 2002)

Experiments:
[1] = molecular target: ATP-dependent translocase ABCB1 (Homo sapiens, UniProt P08183); assay: TP_TRANSPORTER: inhibition of Adriamycin efflux (Adriamycin: 10 uM, JTV-519: 10 uM) in K562/MDR cells; format: functional, cell-based
[2] = molecular target: Multidrug resistance-associated protein 1 (MRP1) (Homo sapiens, UniProt P33527); assay: TP_TRANSPORTER: inhibition of 125I-azidoAG-A photoaffinity labeling (125I-azidoAG-A: 5 uM, JTV-519: 500 uM) in membrane from KB/MRP cells; format: functional, cell membranes, Membrane vesicle; parameters: scale not given: the % may be the effect or the level left; details: probe 125I-azidoAG-A (5 uM), read-out: Activity
Multidrug resistance-associated protein 1 (MRP1), sequence (P33527 whole entry): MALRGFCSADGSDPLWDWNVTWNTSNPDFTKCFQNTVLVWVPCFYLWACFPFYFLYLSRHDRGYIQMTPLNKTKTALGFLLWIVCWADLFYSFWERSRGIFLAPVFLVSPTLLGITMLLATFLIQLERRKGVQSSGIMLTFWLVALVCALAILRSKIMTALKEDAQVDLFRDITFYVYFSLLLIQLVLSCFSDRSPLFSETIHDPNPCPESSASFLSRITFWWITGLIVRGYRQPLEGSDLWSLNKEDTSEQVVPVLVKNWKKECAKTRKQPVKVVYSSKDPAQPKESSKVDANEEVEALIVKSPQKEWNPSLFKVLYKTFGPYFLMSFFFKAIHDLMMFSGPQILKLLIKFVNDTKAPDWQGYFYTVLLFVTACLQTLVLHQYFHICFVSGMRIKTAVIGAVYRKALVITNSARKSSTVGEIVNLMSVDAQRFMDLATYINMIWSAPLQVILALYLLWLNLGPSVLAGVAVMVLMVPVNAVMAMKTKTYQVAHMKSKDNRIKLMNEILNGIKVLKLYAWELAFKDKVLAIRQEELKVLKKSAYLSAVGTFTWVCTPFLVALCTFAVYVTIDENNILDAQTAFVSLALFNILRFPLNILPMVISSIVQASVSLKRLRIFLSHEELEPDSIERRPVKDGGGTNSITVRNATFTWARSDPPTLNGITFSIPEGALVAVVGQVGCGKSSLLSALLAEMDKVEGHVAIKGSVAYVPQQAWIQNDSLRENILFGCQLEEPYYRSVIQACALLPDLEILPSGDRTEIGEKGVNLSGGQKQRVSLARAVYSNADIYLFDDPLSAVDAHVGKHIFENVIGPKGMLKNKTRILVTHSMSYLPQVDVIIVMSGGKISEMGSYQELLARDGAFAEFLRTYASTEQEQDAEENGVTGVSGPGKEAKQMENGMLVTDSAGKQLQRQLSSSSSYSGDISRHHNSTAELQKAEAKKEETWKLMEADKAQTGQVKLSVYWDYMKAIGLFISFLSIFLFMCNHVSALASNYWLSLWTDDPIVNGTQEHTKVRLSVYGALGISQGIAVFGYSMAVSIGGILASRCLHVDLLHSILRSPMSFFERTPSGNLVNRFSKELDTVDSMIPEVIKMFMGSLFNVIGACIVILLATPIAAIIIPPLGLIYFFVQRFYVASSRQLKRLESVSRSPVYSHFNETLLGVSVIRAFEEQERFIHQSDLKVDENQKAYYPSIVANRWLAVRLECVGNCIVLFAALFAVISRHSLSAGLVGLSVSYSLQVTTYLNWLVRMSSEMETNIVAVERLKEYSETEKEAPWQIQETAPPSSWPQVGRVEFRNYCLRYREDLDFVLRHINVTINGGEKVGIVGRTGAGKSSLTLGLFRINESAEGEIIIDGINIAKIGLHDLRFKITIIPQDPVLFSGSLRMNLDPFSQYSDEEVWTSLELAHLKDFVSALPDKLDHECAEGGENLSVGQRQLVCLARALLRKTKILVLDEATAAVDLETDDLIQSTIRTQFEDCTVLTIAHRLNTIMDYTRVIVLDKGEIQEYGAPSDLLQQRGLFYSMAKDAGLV

ATP-dependent translocase ABCB1, sequence (P08183 whole entry): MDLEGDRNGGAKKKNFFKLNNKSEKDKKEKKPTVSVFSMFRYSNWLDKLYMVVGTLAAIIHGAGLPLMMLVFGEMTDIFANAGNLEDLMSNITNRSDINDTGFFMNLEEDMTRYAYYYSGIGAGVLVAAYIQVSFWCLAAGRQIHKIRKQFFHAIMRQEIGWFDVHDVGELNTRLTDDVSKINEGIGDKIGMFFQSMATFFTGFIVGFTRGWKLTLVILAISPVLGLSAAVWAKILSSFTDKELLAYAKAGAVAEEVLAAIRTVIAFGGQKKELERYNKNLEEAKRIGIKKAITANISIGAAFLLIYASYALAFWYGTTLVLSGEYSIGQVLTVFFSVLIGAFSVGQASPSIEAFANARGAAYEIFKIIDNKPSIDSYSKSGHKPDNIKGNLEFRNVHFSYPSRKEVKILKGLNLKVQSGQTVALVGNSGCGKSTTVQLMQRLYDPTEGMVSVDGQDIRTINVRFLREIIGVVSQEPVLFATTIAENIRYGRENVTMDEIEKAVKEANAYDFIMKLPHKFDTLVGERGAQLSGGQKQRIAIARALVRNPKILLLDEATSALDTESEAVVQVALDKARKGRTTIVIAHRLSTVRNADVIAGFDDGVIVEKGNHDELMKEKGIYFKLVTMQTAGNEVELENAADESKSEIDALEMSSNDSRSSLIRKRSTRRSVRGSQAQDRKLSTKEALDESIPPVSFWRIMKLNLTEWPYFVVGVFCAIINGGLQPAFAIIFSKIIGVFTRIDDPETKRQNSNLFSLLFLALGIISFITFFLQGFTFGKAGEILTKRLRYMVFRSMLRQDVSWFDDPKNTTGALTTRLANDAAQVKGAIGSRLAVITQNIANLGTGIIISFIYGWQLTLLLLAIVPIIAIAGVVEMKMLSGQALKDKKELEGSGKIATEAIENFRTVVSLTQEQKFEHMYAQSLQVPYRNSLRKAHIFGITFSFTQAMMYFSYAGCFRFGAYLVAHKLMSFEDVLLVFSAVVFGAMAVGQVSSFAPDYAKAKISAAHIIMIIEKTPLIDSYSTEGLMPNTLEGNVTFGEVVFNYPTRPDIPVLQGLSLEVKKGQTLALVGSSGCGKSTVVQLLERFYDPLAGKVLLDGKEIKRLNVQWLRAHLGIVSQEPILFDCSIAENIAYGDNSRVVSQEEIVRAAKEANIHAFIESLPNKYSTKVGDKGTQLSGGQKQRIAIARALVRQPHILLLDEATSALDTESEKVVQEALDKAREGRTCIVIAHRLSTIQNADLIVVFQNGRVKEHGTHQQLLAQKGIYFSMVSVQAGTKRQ

COc1ccc2c(c1)CN(C(=O)CCN1CCC(Cc3ccccc3)CC1)CCS2
Activity [1]: inhibitor [+] | activity at 500 µM [2]: 58%
